According to article PMC8569681, “New Pyrimidine and Pyridine Derivatives as Multitarget Cholinesterase Inhibitors: Design, Synthesis, and In Vitro and In Cellulo Evaluation” (ACS Chemical Neuroscience, 2021):
“Also recorded” adds a separate entry of the source.

Biological target: T1, tau protein (Homo sapiens, UniProt P10636)
T1 construct: expressed in transfected cells; host or cells: E. coli BL21 (DE3) with pTARA and pRKT42
Assay: Inhibition of tau aggregation in intact E. coli cells, thioflavin-S
Assay type: cell-based, Escherichia coli
Conditions: [I] = 100 μM
Description: The anti-aggregating effect of the tested compounds was monitored by a cell-based assay in intact Escherichia coli cells that overexpress either the Aβ42 peptide or tau protein, which upon overexpression form insoluble inclusion bodies that were stained with thioflavin-S, an amyloid specific dye.[36] The percentages of inhibition toward Aβ42 and tau aggregation were determined at an inhibitor concentration of 100 μM, and the obtained results are reported in Table 7.
E. coli BL21 (DE3) competent cells were transformed with pTARA containing the RNA-polymerase gene of T7 phage (T7RP) under the control of the promoter PBAD. E. coli BL21 (DE3) with pTARA competent cells were transformed with the pRKT42 vector encoding four repeats of the tau protein in two inserts. For overnight culture preparation, 10 mL of the M9 medium containing 0.5% of glucose, 50 μg·mL^–1 of ampicillin, and 12.5 μg·mL^–1 of chloramphenicol was inoculated with a colony of BL21 (DE3) bearing the plasmids to be expressed at 37 °C. For expression of the tau protein, the required volume of overnight culture to obtain 1:500 dilution was added to the fresh M9 minimal medium containing 0.5% of glucose, 50 μg·mL^–1 of ampicillin, 12.5 μg·mL^–1 of chloramphenicol, and 250 μM Th-S. The bacterial culture was grown at 37 °C and 250 rpm. When the cell density reached OD600 = 0.6, an amount of 980 μL of culture was transferred into Eppendorf tubes of 1.5 mL with 10 μL of each compound to be tested in DMSO and 10 μL of arabinose at 25%. The final concentration of the drug was fixed at 100 μM. The samples were grown overnight at 37 °C and 1400 rpm using a ThermoMixer (Eppendorf, Hamburg, Germany). As negative control (maximal presence of tau), the same amount of DMSO without the drug was added in the sample. In parallel, non-induced samples (in the absence of arabinose) were also prepared and used as positive controls (absence of tau). In addition, these samples were used to assess the potential intrinsic toxicity of the compounds and to confirm the correct bacterial growth.
Th-S (T1892) and other chemical reagents were purchased from Sigma (St. Louis, MO). The Th-S stock solution ([…]) was prepared in double-distilled water purified through a Milli-Q system (Millipore, USA). Th-S fluorescence and absorbance were tracked using a DTX 800 plate reader Multimode Detector equipped with a Multimode Analysis Software (Beckman-Coulter, USA). Filters of 430/35 and 485/20 nm were used for the excitation and emission wavelengths, respectively. Filters of 535/25 nm were also used for the absorbance determination. To normalize the Th-S fluorescence as a function of the bacterial concentration, OD600 was obtained using a Shimadzu UV-2401 PC UV–vis spectrophotometer (Shimadzu, Japan). Note that the fluorescence normalization was carried out considering as 100% the Th-S fluorescence of the bacterial cells expressing the peptide or protein in the absence of drug and 0% the Th-S fluorescence of the bacterial cells not expressing the peptide or protein. A minimum of five independent assays (with three replicates for assay) was performed for each tested compound. More assays were performed to obtain a SEM < 5% with a maximum of 10 independent assays.

T1 sequence (P10636 1-441 isoform P10636-8): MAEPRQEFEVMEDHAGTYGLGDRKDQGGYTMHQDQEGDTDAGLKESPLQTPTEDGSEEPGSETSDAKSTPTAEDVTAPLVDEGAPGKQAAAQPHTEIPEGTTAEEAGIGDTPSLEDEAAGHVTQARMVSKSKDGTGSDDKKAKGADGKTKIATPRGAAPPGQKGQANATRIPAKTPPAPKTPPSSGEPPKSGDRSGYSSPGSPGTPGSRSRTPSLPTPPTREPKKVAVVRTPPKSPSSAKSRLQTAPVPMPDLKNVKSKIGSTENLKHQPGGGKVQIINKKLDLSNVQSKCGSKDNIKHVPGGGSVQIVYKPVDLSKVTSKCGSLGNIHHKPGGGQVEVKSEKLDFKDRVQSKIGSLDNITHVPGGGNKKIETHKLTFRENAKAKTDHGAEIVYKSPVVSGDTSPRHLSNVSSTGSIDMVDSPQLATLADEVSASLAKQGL

| Compound | inhibition at 100 µM [%] |
| --- | --- |
| c1ccc(CNCCCCCNc2ncccn2)cc1 [Compound 9, N^1-Benzyl-N^5-(pyrimidin-2-yl)pentane-1,5-diamine] | 2.6 |
| c1ccc(CNCCCCCCNc2ncccn2)cc1 [Compound 13, N^1-Benzyl-N^6-(pyrimidin-2-yl)hexane-1,6-diamine] | 12.6 |
| COc1cc(CNCCCCCCNc2ncccn2)ccc1O [Compound 18, 2-Methoxy-4-(((6-(pyrimidin-2-ylamino)hexyl)amino)methyl)phenol] | 1 |
| Oc1cccc(CNCCCCCCNc2ncccn2)c1 [Compound 19, 3-(((6-(Pyrimidin-2-ylamino)hexyl)amino)methyl)phenol] | 9.9 |
| Oc1cccc(CNCCCCCCNc2ncccn2)c1O [Compound 20, 3-(((6-(Pyrimidin-2-ylamino)hexyl)amino)methyl)benzene-1,2-diol] | 4.6 |
| c1cnc(NCCCCCCNCc2c[nH]c3ccccc23)nc1 [Compound 22, N^1-((1H-Indol-3-yl)methyl)-N^6-(pyrimidin-2-yl)hexane-1,6-diamine] | 6.8 |
| c1ccc(CNCCCCCNc2ccccn2)cc1 [Compound 23, N^1-Benzyl-N^5-(pyridin-2-yl)pentane-1,5-diamine] | 7 |
| c1ccc(CNCCCCCCNc2ccccn2)cc1 [Compound 25, N^1-Benzyl-N^6-(pyridin-2-yl)hexane-1,6-diamine] | 6.7 |
| Brc1ccc(CNCCCCCCNc2ccccn2)cc1 [Compound 26, N^1-(4-Bromobenzyl)-N^6-(pyridin-2-yl)hexane-1,6-diamine] | 7.3 |
| COc1ccccc1CNCCCCCCNc1ccccn1 [Compound 28, N^1-(2-Methoxybenzyl)-N^6-(pyridin-2-yl)hexane-1,6-diamine] | 17 |
| COc1cc(CNCCCCCCNc2ccccn2)ccc1O [Compound 30, 2-Methoxy-4-(((6-(pyridin-2-ylamino)hexyl)amino)methyl)phenol] | 12.8 |

Biological target: T2, Electrophorus electricus AChE (EeAChE) (Electrophorus electricus, UniProt O42275)
T2 construct: purchased Sigma-Aldrich (Milan, Italy)
Assay: Inhibition constant and mechanism vs EeAChE, Dixon's method
Assay type: biochemical
Conditions: Dixon's plot, best fitting model
Description: (§1) . The recorded data were analyzed with the enzyme kinetic module of SigmaPlot to find the best fitting model of inhibition using the linear regression analysis. The reference kinetic models used in the regression analysis were competitive, noncompetitive, uncompetitive, and mixed. Each determination was repeated five times, and incorrect values were discarded to reduce the standard deviation within the limit of 5%. In this way, the regression lines obtained have a linear regression coefficient (R^2) higher than 0.95. Dixon’s plots of all tested compounds are reported in the Supporting Information (Figures S1–S12).
(§2) 18, 22, 25, 26, 28, and 30 toward eqBChE). For each compound, a 500 μM stock solution was prepared in H2O/DMSO or in 10^–2 M HCl and diluted in water to prepare solutions of opportune concentrations to introduce in the cuvette volumes ranging from 30 to 100 μL, to obtain the desired final concentrations. The maximum amount of DMSO used for the preparation of the stock solution was calculated to have a DMSO content in cuvette <0.033%.
(§3) Three milliliters of 0.1 M phosphate buffer (pH = 7.4) containing DTNB (0.25 mM) and EeAChE (0.083 UmL^–1) or eqBChE (0.083 UmL^–1) was mixed with the opportune volume of the inhibitor solution to obtain a final inhibitor concentration in cuvette between 90 and 1800 nM. With this solution, the blank was made. […]. The absorbance variations were measured at 412 nm at 25 °C between 0.5 and 1.5 min.
(§4) To determine the inhibition constants (Ki) and the inhibition mechanisms, the rates of hydrolysis at three different concentrations of substrate in the presence of five different concentrations of inhibitor were measured.

T2 sequence (O42275 24-633): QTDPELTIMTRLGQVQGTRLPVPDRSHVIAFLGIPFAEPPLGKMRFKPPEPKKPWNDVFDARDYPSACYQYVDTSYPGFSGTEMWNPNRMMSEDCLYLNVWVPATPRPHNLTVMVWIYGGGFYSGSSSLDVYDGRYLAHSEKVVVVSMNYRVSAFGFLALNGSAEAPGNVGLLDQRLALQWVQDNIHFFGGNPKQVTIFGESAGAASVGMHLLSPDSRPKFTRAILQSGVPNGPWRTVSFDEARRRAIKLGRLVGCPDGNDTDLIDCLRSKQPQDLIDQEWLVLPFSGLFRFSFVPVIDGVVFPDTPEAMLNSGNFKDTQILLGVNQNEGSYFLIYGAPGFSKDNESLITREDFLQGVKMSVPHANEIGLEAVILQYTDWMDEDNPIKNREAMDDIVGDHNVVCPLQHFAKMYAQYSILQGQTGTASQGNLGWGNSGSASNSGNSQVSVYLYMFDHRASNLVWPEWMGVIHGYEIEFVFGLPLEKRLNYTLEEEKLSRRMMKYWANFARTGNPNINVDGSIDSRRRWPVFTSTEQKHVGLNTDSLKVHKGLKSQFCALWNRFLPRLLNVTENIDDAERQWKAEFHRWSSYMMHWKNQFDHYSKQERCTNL

| Compound | inhibition mechanism on EeAChE |
| --- | --- |
| c1ccc(CNCCCCCNc2ncccn2)cc1 [Compound 9, N^1-Benzyl-N^5-(pyrimidin-2-yl)pentane-1,5-diamine] | mixed |
| c1ccc(CNCCCCCCNc2ncccn2)cc1 [Compound 13, N^1-Benzyl-N^6-(pyrimidin-2-yl)hexane-1,6-diamine] | mixed |
| Oc1cccc(CNCCCCCCNc2ncccn2)c1 [Compound 19, 3-(((6-(Pyrimidin-2-ylamino)hexyl)amino)methyl)phenol] | uncompetitive; also recorded: uncomp |
| c1ccc(CNCCCCCNc2ccccn2)cc1 [Compound 23, N^1-Benzyl-N^5-(pyridin-2-yl)pentane-1,5-diamine] | mixed |
| c1ccc(CNCCCCCCNc2ccccn2)cc1 [Compound 25, N^1-Benzyl-N^6-(pyridin-2-yl)hexane-1,6-diamine] | mixed |
| COc1ccccc1CNCCCCCCNc1ccccn1 [Compound 28, N^1-(2-Methoxybenzyl)-N^6-(pyridin-2-yl)hexane-1,6-diamine] | mixed |

Same assay, conditions: mixed inhibition; α > 1 free enzyme, α < 1 enzyme–substrate complex

| Compound | α, EeAChE |
| --- | --- |
| c1ccc(CNCCCCCNc2ncccn2)cc1 [Compound 9, N^1-Benzyl-N^5-(pyrimidin-2-yl)pentane-1,5-diamine] | 7.5 |
| c1ccc(CNCCCCCCNc2ncccn2)cc1 [Compound 13, N^1-Benzyl-N^6-(pyrimidin-2-yl)hexane-1,6-diamine] | 0.3 |
| c1ccc(CNCCCCCNc2ccccn2)cc1 [Compound 23, N^1-Benzyl-N^5-(pyridin-2-yl)pentane-1,5-diamine] | 2.2 |
| c1ccc(CNCCCCCCNc2ccccn2)cc1 [Compound 25, N^1-Benzyl-N^6-(pyridin-2-yl)hexane-1,6-diamine] | 0.8 |
| COc1ccccc1CNCCCCCCNc1ccccn1 [Compound 28, N^1-(2-Methoxybenzyl)-N^6-(pyridin-2-yl)hexane-1,6-diamine] | 1.2 |

Same assay, conditions: three substrate and five inhibitor concentrations; read-out: Ki ± SD, EeAChE

| Compound | Ki [µM] |
| --- | --- |
| c1ccc(CNCCCCCNc2ncccn2)cc1 [Compound 9, N^1-Benzyl-N^5-(pyrimidin-2-yl)pentane-1,5-diamine] | 0.312 ± 0.108 |
| c1ccc(CNCCCCCCNc2ncccn2)cc1 [Compound 13, N^1-Benzyl-N^6-(pyrimidin-2-yl)hexane-1,6-diamine] | 0.426 ± 0.132 |
| Oc1cccc(CNCCCCCCNc2ncccn2)c1 [Compound 19, 3-(((6-(Pyrimidin-2-ylamino)hexyl)amino)methyl)phenol] | 0.509 ± 0.018 |
| c1ccc(CNCCCCCNc2ccccn2)cc1 [Compound 23, N^1-Benzyl-N^5-(pyridin-2-yl)pentane-1,5-diamine] | 0.743 ± 0.316 |
| c1ccc(CNCCCCCCNc2ccccn2)cc1 [Compound 25, N^1-Benzyl-N^6-(pyridin-2-yl)hexane-1,6-diamine] | 0.995 ± 0.374 |
| COc1ccccc1CNCCCCCCNc1ccccn1 [Compound 28, N^1-(2-Methoxybenzyl)-N^6-(pyridin-2-yl)hexane-1,6-diamine] | 1.32 ± 0.622 |

Biological target: T3, equine BChE (eqBChE) (Equus caballus, UniProt P81908)
T3 construct: purchased Sigma-Aldrich (Milan, Italy)
Assay: Inhibition constant and mechanism vs eqBChE, Dixon's method
Assay type: biochemical
Conditions: Dixon's plot, best fitting model
Description: as §1, §2, §3, §4

T3 sequence (P81908 whole entry): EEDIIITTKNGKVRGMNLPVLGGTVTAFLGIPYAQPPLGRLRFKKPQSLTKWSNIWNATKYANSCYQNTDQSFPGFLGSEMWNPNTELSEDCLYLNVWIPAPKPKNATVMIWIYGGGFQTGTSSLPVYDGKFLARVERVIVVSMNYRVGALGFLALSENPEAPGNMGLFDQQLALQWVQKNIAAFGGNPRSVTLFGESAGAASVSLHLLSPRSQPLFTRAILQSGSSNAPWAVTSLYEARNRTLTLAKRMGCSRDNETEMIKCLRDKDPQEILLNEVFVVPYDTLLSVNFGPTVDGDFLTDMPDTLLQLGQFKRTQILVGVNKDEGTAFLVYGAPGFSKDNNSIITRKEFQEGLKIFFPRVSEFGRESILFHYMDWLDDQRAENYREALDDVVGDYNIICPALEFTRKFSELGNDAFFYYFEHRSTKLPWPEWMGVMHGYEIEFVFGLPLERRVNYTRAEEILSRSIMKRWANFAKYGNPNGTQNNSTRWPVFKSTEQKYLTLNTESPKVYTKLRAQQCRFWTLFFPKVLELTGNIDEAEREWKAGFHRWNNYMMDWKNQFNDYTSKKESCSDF

| Compound | inhibition mechanism on eqBChE |
| --- | --- |
| COc1cc(CNCCCCCCNc2ncccn2)ccc1O [Compound 18, 2-Methoxy-4-(((6-(pyrimidin-2-ylamino)hexyl)amino)methyl)phenol] | mixed |
| c1cnc(NCCCCCCNCc2c[nH]c3ccccc23)nc1 [Compound 22, N^1-((1H-Indol-3-yl)methyl)-N^6-(pyrimidin-2-yl)hexane-1,6-diamine] | mixed |
| c1ccc(CNCCCCCCNc2ccccn2)cc1 [Compound 25, N^1-Benzyl-N^6-(pyridin-2-yl)hexane-1,6-diamine] | mixed |
| Brc1ccc(CNCCCCCCNc2ccccn2)cc1 [Compound 26, N^1-(4-Bromobenzyl)-N^6-(pyridin-2-yl)hexane-1,6-diamine] | mixed |
| COc1ccccc1CNCCCCCCNc1ccccn1 [Compound 28, N^1-(2-Methoxybenzyl)-N^6-(pyridin-2-yl)hexane-1,6-diamine] | mixed |
| COc1cc(CNCCCCCCNc2ccccn2)ccc1O [Compound 30, 2-Methoxy-4-(((6-(pyridin-2-ylamino)hexyl)amino)methyl)phenol] | mixed |

Same assay, conditions: mixed inhibition; α > 1 free enzyme, α < 1 enzyme–substrate complex

| Compound | α, eqBChE |
| --- | --- |
| COc1cc(CNCCCCCCNc2ncccn2)ccc1O [Compound 18, 2-Methoxy-4-(((6-(pyrimidin-2-ylamino)hexyl)amino)methyl)phenol] | 7.3 |
| c1cnc(NCCCCCCNCc2c[nH]c3ccccc23)nc1 [Compound 22, N^1-((1H-Indol-3-yl)methyl)-N^6-(pyrimidin-2-yl)hexane-1,6-diamine] | 10 |
| c1ccc(CNCCCCCCNc2ccccn2)cc1 [Compound 25, N^1-Benzyl-N^6-(pyridin-2-yl)hexane-1,6-diamine] | 2.2 |
| Brc1ccc(CNCCCCCCNc2ccccn2)cc1 [Compound 26, N^1-(4-Bromobenzyl)-N^6-(pyridin-2-yl)hexane-1,6-diamine] | 0.5 |
| COc1ccccc1CNCCCCCCNc1ccccn1 [Compound 28, N^1-(2-Methoxybenzyl)-N^6-(pyridin-2-yl)hexane-1,6-diamine] | 0.8 |
| COc1cc(CNCCCCCCNc2ccccn2)ccc1O [Compound 30, 2-Methoxy-4-(((6-(pyridin-2-ylamino)hexyl)amino)methyl)phenol] | 1.4 |

Same assay, conditions: three substrate and five inhibitor concentrations; read-out: Ki ± SD, eqBChE

| Compound | Ki [µM] |
| --- | --- |
| COc1cc(CNCCCCCCNc2ncccn2)ccc1O [Compound 18, 2-Methoxy-4-(((6-(pyrimidin-2-ylamino)hexyl)amino)methyl)phenol] | 3.03 ± 0.604 |
| c1cnc(NCCCCCCNCc2c[nH]c3ccccc23)nc1 [Compound 22, N^1-((1H-Indol-3-yl)methyl)-N^6-(pyrimidin-2-yl)hexane-1,6-diamine] | 0.099 ± 0.071 |
| c1ccc(CNCCCCCCNc2ccccn2)cc1 [Compound 25, N^1-Benzyl-N^6-(pyridin-2-yl)hexane-1,6-diamine] | 2.37 ± 0.304 |
| Brc1ccc(CNCCCCCCNc2ccccn2)cc1 [Compound 26, N^1-(4-Bromobenzyl)-N^6-(pyridin-2-yl)hexane-1,6-diamine] | 3.46 ± 1.48 |
| COc1ccccc1CNCCCCCCNc1ccccn1 [Compound 28, N^1-(2-Methoxybenzyl)-N^6-(pyridin-2-yl)hexane-1,6-diamine] | 3.43 ± 0.701 |
| COc1cc(CNCCCCCCNc2ccccn2)ccc1O [Compound 30, 2-Methoxy-4-(((6-(pyridin-2-ylamino)hexyl)amino)methyl)phenol] | 1.1 ± 0.189 |
